The experiment has as its target T1, CRTH2 receptor (Homo sapiens, UniProt Q9Y5Y4).
T1 sequence (Q9Y5Y4 1-395): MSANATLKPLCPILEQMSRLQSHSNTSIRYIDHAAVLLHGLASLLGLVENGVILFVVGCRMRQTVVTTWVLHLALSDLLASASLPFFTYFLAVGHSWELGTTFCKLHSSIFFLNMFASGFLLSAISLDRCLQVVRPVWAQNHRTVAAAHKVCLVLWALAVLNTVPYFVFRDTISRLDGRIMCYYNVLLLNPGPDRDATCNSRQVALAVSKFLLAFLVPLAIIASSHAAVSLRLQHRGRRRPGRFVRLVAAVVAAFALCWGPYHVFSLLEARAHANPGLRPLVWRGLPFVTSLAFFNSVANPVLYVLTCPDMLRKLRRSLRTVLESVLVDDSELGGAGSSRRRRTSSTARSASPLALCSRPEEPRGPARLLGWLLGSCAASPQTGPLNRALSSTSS
Briefly: Radioligand binding assay ([3H]-PGD2 displacement, SPA). Also noted: expressed in transfected cells; host or cells: HEK cell membranes. Particulars: HEK cell membranes expressing the CRTH2 receptor, 1 nM [3H]-PGD2; Ki from IC50 by Cheng-Prusoff. As for the experimental part: Radioligand Binding Assay
The receptor binding assay is performed in a final volume of 200 μL binding buffer [10 mM BES (pH 7.4), 1 mM EDTA, 10 mM manganese chloride, 0.01% BSA] and 1 nM [^3H]-PGD2 (Amersham Biosciences UK Ltd). Ligands are added in assay buffer containing a constant amount of DMSO (1% by volume). Total binding is determined using 1% by volume of DMSO in assay buffer and non-specific binding is determined using 10 μM of unlabeled PGD2 (Sigma). Human embryonic kidney (HEK) cell membranes (3.5 μg) expressing the CRTH2 receptor are incubated with 1.5 mg wheatgerm agglutinin SPA beads and 1 nM [^3H]-PGD2 (Amersham Biosciences UK Ltd) and the mixture incubated for 3 hours at room temperature. Bound [^3H]-PGD2 is detected using a Microbeta TRILUX liquid scintillation counter (Perkin Elmer). Compound IC50 value is determined using a 6-point dose response curve in duplicate with a semi-log compound dilution series. IC50 calculations are performed using Excel and XLfit (Microsoft), and this value is used to determine a Ki value for the test compound using the Cheng-Prusoff equation.

A value given as a limit tells only on which side of the number the result lay.

In general, Ki refers to a dissociation constant, usually derived from enzyme kinetics or from competition with a known ligand. For the compound `COc1c(Cc2ccc(Cl)cc2)c(C)nc2c(Cl)ccc(OCC(=O)O)c12` [Example 1, [8-chloro-3-(4-chlorobenzyl)-4-methoxy-2-methylquinolin-5-yloxy]acetic Acid], the Ki was less than 100 nM. The same measure for `Cc1nc2c(Cl)ccc(OCC(=O)O)c2c(C)c1Cc1ccc(Cl)cc1` [Example 2, [8-chloro-3-(4-chlorobenzyl)-2,4-dimethylquinolin-5-yloxy]acetic Acid]: less than 100 nM. The same measure for `CCOc1nc2cc(C)cc(CC(=O)O)c2c(C)c1Cc1ccc(Cl)cc1` [Example 3, [3-(4-chlorobenzyl)-2-ethoxy-4,7-dimethylquinolin-5-yl]acetic Acid]: less than 100 nM; for `Cc1cc(OCC(=O)O)c2c(C)c(Cc3ccc(Cl)cc3)c(C)nc2c1` [Example 4, [3-(4-chlorobenzyl)-2,4,7-trimethylquinolin-5-yloxy]acetic Acid]: less than 1000 nM; for `Cc1cc(CC(=O)O)c2c(C)c(Cc3ccc(Cl)cc3)c(C)nc2c1` [Example 5, [3-(4-chlorobenzyl)-2,4,7-trimethylquinolin-5-yl]acetic Acid]: less than 1000 nM. Consider `Cc1nc2c(Cl)ccc(CC(=O)O)c2c(C)c1Cc1ccc(Cl)cc1` [Example 6, [8-chloro-3-(4-chlorobenzyl)-2,4-dimethylquinolin-5-yl]acetic Acid], for which the Ki was less than 100 nM. As to `Cc1nc2c(Cl)ccc(OCC(=O)O)c2c(C)c1Oc1ccc(Cl)cc1` [Example 7, [8-chloro-3-(4-chlorophenoxy)-2,4-dimethylquinolin-5-yloxy]acetic Acid], the Ki was less than 100 nM. The same measure for `Cc1nc2c(Cl)ccc(OCC(=O)O)c2c(C)c1Sc1ccc(Cl)cc1` [Example 8, [8-chloro-3-(4-chlorophenylsulfanyl)-2,4-dimethylquinolin-5-yloxy]acetic Acid]: less than 100 nM; for `Cc1nc2c(Cl)ccc(OCC(=O)O)c2c(OC(F)F)c1Cc1ccc(Cl)cc1` [Example 9, [8-chloro-3-(4-chlorobenzyl)-4-difluoromethoxy-2-methylquinolin-5-yloxy]acetic Acid]: less than 100 nM; for `Cc1nc2c(Cl)ccc(OCC(=O)O)c2cc1Cc1ccc(Cl)cc1` [Example 10, [8-chloro-3-(4-chlorobenzyl)-2-methylquinolin-5-yloxy]acetic Acid]: less than 1000 nM.

Consider `Cc1nc2cc(Cl)cc(CC(=O)O)c2c(C)c1Cc1ccc(Cl)cc1` [Example 11, [7-chloro-3-(4-chlorobenzyl)-2,4-dimethylquinolin-5-yl]acetic acid], for which the Ki was less than 100 nM. In turn, `Cc1nc2c(Cl)ccc(OCC(=O)NS(C)(=O)=O)c2c(C)c1Cc1ccc(Cl)cc1` [Example 13, N-{2-[8-chloro-3-(4-chlorobenzyl)-2,4-dimethylquinolin-5-yloxy]-acetyl}methanesulfonamide] registered a Ki of less than 1000 nM. For the compound `Cc1nc2c(Cl)ccc(OCC(=O)NS(=O)(=O)c3ccccc3)c2c(C)c1Cc1ccc(Cl)cc1` [Example 14, N-{2-[8-chloro-3-(4-chlorobenzyl)-2,4-dimethylquinolin-5-yloxy]-acetyl}benzenesulfonamide], the Ki was less than 10000 nM.

Take `Cc1nc2c(Cl)ccc(CC(=O)O)c2c(C)c1Oc1ccc(Cl)cc1` [Example 15, [8-chloro-3-(4-chlorophenoxy)-2,4-dimethylquinolin-5-yl]acetic Acid]: the Ki was less than 100 nM. In the case of `CCc1c(Cc2ccc(Cl)cc2)c(C)nc2c(Cl)ccc(OCC(=O)O)c12` [Example 16, [8-chloro-3-(4-chlorobenzyl)-4-ethyl-2-methylquinolin-5-yloxy]acetic acid], the inhibitory constant (Ki) is less than 100 nM.

In the case of `CCc1nc2c(Cl)ccc(OCC(=O)O)c2c(C)c1Cc1ccc(Cl)cc1` [Example 17, [8-chloro-3-(4-chlorobenzyl)-2-ethyl-4-methylquinolin-5-yloxy]acetic Acid], the Ki is less than 100 nM. The same measure for `Cc1c(Cc2ccc(F)cc2)c(OC(F)F)nc2c(Cl)ccc(OCC(=O)O)c12` [Example 19, [8-chloro-2-difluoromethoxy-3-(4-fluorobenzyl)-4-methylquinolin-5-yloxy]acetic acid]: less than 100 nM. The same measure for `Cc1nc2c(Cl)ccc(OCC(=O)O)c2c(C)c1S(=O)(=O)c1ccc(Cl)cc1` [Example 21, [8-chloro-3-(4-chlorobenzenesulfonyl)-2,4-dimethylquinolin-5-yloxy]acetic Acid]: less than 100 nM; for `Cc1nc2c(Cl)ccc(OCC(=O)O)c2c(C)c1[S+]([O-])c1ccc(Cl)cc1` (stereo not shown) [Example 22, [8-chloro-3-(4-chlorobenzenesulfinyl)-2,4-dimethylquinolin-5-yloxy]acetic Acid]: less than 100 nM; for `Cc1nc2c(Cl)ccc(OCc3nnn[nH]3)c2c(C)c1Cc1ccc(Cl)cc1` [Example 23, 8-chloro-3-(4-chlorobenzyl)-2,4-dimethyl-5-(1H-tetrazol-5-ylmethoxy)quinoline]: less than 10000 nM. The same measure for `Cc1nc2c(Cl)ccc(OCC(=O)O)c2c(OC(F)F)c1Sc1ccc(Cl)cc1` [Example 24, [8-chloro-3-(4-chlorophenylsulfanyl)-4-difluoromethoxy-2-methyl-quinolin-5-yloxy]acetic Acid]: less than 100 nM; for `Cc1nc2c(Cl)ccc(CC(=O)O)c2c(OC(F)F)c1Cc1ccc(Cl)cc1` [Example 25, [8-chloro-3-(4-chlorobenzyl)-4-difluoromethoxy-2-methylquinolin-5-yl]acetic acid]: less than 1000 nM. For `Cc1nc2c(Cl)ccc(OCC(=O)O)c2c(OC(F)F)c1Cc1ccc(S(C)(=O)=O)cc1` [Example 26, [8-chloro-4-difluoromethoxy-3-(4-methanesulfonylbenzyl)-2-methylquinolin-5-yloxy]acetic acid], the Ki is less than 100 nM. The same measure for `Cc1nc2c(F)ccc(OCC(=O)O)c2c(OC(F)F)c1Cc1ccc(Cl)cc1` [Example 27, [3-(4-chlorobenzyl)-4-difluoromethoxy-8-fluoro-2-methylquinolin-5-yloxy]acetic acid]: less than 100 nM; for `Cc1nc2c(Cl)ccc(CC(=O)O)c2c(C)c1Cc1ccc(S(C)(=O)=O)cc1` [Example 28, [8-chloro-3-(4-methanesulfonylbenzyl)-2,4-dimethylquinolin-5-yl]acetic acid]: less than 1000 nM. The same measure for `CCc1nc2c(Cl)ccc(OCC(=O)O)c2c(OC(F)F)c1Cc1ccc(S(C)(=O)=O)cc1` [Example 29, [8-chloro-4-difluoromethoxy-2-ethyl-3-(4-methanesulfonylbenzyl)-quinolin-5-yloxy]acetic acid]: less than 100 nM; for `Cc1c(Cc2ccc(Cl)cc2)c(OC(F)F)nc2c(F)ccc(OCC(=O)O)c12` [Example 30, [3-(4-chlorobenzyl)-2-difluoromethoxy-8-fluoro-4-methylquinolin-5-yloxy]-acetic Acid]: less than 100 nM.

`Cc1c(Cc2ccc(F)cc2)c(OC(C)C)nc2c(Cl)ccc(OCC(=O)O)c12` [Example 31, [8-chloro-3-(4-fluorobenzyl)-2-isopropoxy-4-methylquinolin-5-yloxy]acetic Acid]: the Ki was less than 1000 nM. The same measure for `Cc1nc2c(Cl)ccc(OCC(=O)O)c2c(OC(C)C)c1Cc1ccc(F)cc1` [Example 32, [8-chloro-3-(4-fluorobenzyl)-4-isopropoxy-2-methylquinolin-5-yloxy]acetic Acid]: less than 1000 nM. In the case of `Cc1nc2c(Cl)ccc(OC(C)C(=O)O)c2c(C)c1Cc1ccc(Cl)cc1` (stereo not shown) [Example 33, 2-[8-chloro-3-(4-chlorobenzyl)-2,4-dimethylquinolin-5-yloxy]propionic Acid], the Ki is less than 100 nM. The same measure for `Cc1c(Cc2ccc(S(C)(=O)=O)cc2)c(OC(F)F)nc2c(Cl)ccc(OCC(=O)O)c12` [Example 34, [8-chloro-2-difluoromethoxy-3-(4-methanesulfonylbenzyl)-4-methylquinolin-5-yloxy]acetic Acid]: less than 100 nM; for `Cc1nc2c(Cl)ccc(OCC(=O)O)c2c(OC(F)F)c1Cc1ccc(S(C)(=O)=O)cc1Cl` [Example 35, [8-chloro-3-(2-chloro-4-methanesulfonylbenzyl)-4-difluoro-methoxy-2-methylquinolin-5-yloxy]acetic Acid]: less than 100 nM. Turning to `Cc1c(Cc2ccc(S(C)(=O)=O)cc2)c(OC(F)F)nc2c(Cl)ccc(CC(=O)O)c12` [Example 36, [8-chloro-2-difluoromethoxy-3-(4-methanesulfonylbenzyl)-4-methylquinolin-5-yl]acetic Acid], the Ki is less than 100 nM.

For the compound `CCc1nc2c(Cl)ccc(OCC(=O)O)c2c(OC(F)F)c1Cc1ccc(F)cc1` [Example 37, [8-chloro-4-difluoromethoxy-2-ethyl-3-(4-fluorobenzyl)quinolin-5-yloxy]acetic Acid], the Ki was less than 100 nM.
